Like-named read-outs stand apart in the source and are kept apart here. *1 amine or outer side, *2 acyl side, *3 side chain or, on linkers, in order; H or OH if unused. Where a SMILES comes first, the peptide text is derived from it. [ ]: non-standard residue; d: D form. X1 = O=C(c1ccc(-c2ccc(N[*:1])cn2)nc1)[*:2]; βAla = NCCC(=O)O
Legend:
SF-268 (human glioma) = settings: 72 h
Source text: (§1) IC50 is the concentration at which 50% growth inhibition is obtained and E max represents the efficacy of the compound at its maximum concentration, expressed as the maximum % cell inhibition achieved by the compound (see Section S6 and Figure S8 of the Supporting Information).
(§2) General method: cell lines and grown conditions
(§3) Non-small lung carcinoma NCI-H460, human colon carcinoma HCT-116, human glioma SF-268
(§4) and doxorubicin-resistance human mamma carcinoma NCI/ADR-RES cell lines, as well as
(§5) Eagle’s Minimal Essential Medium (EMEM) and RPMI1640 were purchased from the American Tissue Culture Collection (ATCC). Frozen cells were thawed in a 75 cm2 cell culture flask in RPMI
(§6) supplemented with 2 mM L-glutamine and 10% FBS and maintained at 37 °C in a 5% CO2
(§7) The inhibition of cell proliferation induced by the samples [1/Cu(II), 1 eq. cyclopeptide 1/3 eq. of
(§8) Cu(II); 2/Cu(II), 1 eq. cyclopeptide 2/5 eq. of Cu(II)]‚ was carried out by using MTT method for
(§9) HCT-116, NCI/ADR-RES and NCI-H460 cell lines. SF-268 cell growth inhibition induced by the
(§10) samples was assessed using a system based on crystal violet cell staining and subsequent
(§11) acetylation. Cells were seeded in a 96-well microplate (5000 cells/well for HCT-116, 10000
(§12) cells/well for SF-268 and 15000 cells/well for NCI/ADR-RES and NCI-H460 cell lines) in 100 μl
(§13) of growth medium and maintained at 37 °C for 24 h.
(§14) Then growth medium was replaced by fresh medium containing different concentrations of the
(§15) samples to be assayed and maintained at 37 °C in a 5% CO2 atmosphere for 48 h. After this
(§16) time, 10 μL MTT (5 mg/ml in PBS) were added to each well and maintained for 4 h at 37 °C in a
(§17) 5% CO2 atmosphere. Then 100 μL of 10% SDS in 0.01 M HCl were added to each well an
(§18) incubated for 12-14 h under the same experimental conditions. Absorbance due to formation
(§19) was detected in a Tecan infinity M1000 Pro reader using a wavelength of 595 nm. All assays
were performed with triplicate points.
b) Crystal violet cell staining
(§20) The samples dissolved in water were added, maintaining the same proportion of water in each
(§21) well (10%). After 72 h (at 37°C and in an atmosphere of 5% CO 2/95% air), the cells were fixed to
(§22) the plate with 10 μL of 11% glutaraldehyde solution, kept under agitation at room temperature,
(§23) for 15 minutes. Once fixed, the medium was removed and the cells were washed 3-4 times with
(§24) distilled water, followed by staining of the cells with 100 μL of a 0.1% crystal violet solution. This
(§25) solution was prepared by diluting 0.1g of crystal violet in 100 mL of buffer composed of 200 mM
(§26) phosphoric acid, 200 mM formic acid and 200 mM 2-(N-morpholino)-ethane sulphonic acid
(§27) (MES) at pH 6. The plate was kept shaking at room temperature for 15 minutes. The dye was
(§28) removed, washed 3-4 times with distilled water and dried. 100 μL of 10% acetic acid was then
(§29) added and kept under agitation for 15 minutes, at room temperature, so that the staining was
(§30) homogeneous in all wells. Finally, an absorbance reading of the plates was performed at a
(§31) wavelength of 595 nm (Tecan M1000 Infinite Pro). The assay was performed with triplicate points.
(§32) Data were expressed as the growth inhibition percentage calculated in basis on the equation: %
(§33) inhibition= 100 – [(AO × 100) / AT]. Where AT is the measured absorbance in wells containing
(§34) compounds and AO is the absorbance measured in blank wells (cells with medium and vehicle).
(§35) The inhibitory potency of compounds was calculated by constructing concentration-% growth
(§36) inhibition curves, and extrapolating IC50 values (concentration of compound that inhibits cells

[1] = system: NCI/ADR-RES (doxorubicin resistant ovarian carcinoma); settings: 48 h
Source text: as §1, §2, §3, §4, §5, §6, §7, §8, §9, §10, §11, §12, §13, §14, §15, §16, §17, §18, §19
were performed with triplicate points.
b) Crystal violet cell staining
as §20, §21, §22, §23, §24, §25, §26, §27, §28, §29, §30, §31, §32, §33, §34, §35, §36

[2] = system: NCI-H460 (lung carcinoma); settings: 48 h
Source text: as §1, §2, §3, §4, §5, §6, §7, §8, §9, §10, §11, §12, §13, §14, §15, §16, §17, §18, §19
were performed with triplicate points.
b) Crystal violet cell staining
as §20, §21, §22, §23, §24, §25, §26, §27, §28, §29, §30, §31, §32, §33, §34, §35, §36

[3] = system: nontransformed lung fibroblast (MRC-5)
Source text: as §1, §2, §3, §4, §5, §6, §7, §8, §9, §10, §11, §12, §13, §14, §15, §16, §17, §18, §19
were performed with triplicate points.
b) Crystal violet cell staining
as §20, §21, §22, §23, §24, §25, §26, §27, §28, §29, §30, §31, §32, §33, §34, §35, §36

[4] = system: HCT-116 (colon carcinoma); settings: 48 h
Source text: as §1, §2, §3, §4, §5, §6, §7, §8, §9, §10, §11, §12, §13, §14, §15, §16, §17, §18, §19
were performed with triplicate points.
b) Crystal violet cell staining
as §20, §21, §22, §23, §24, §25, §26, §27, §28, §29, §30, §31, §32, §33, §34, §35, §36

[5] = Fluorescence titration of cyclopeptides with Cu(II) ions (DynaFit fit); format: binding; settings: 2 μM cyclopeptide, 1 mM phosphate buffer, 10 mM NaCl, pH 6.5; 1: 1:2 model (cyclopeptide:metal); 2: simplified model with 1:1 and 2:1 species; read-out: global dissociation constant K D
Source text: While the 2,2′-bipyridine ligand is known to be weakly emissive and for all practical purposes considered nonfluorescent, , the 5′-amido-[2,2′-bipyridine]-5-carboxamide unit in the βAlaBpy building block is highly emissive, displaying an intense emission band at c.a. 410 nm with a quantum yield of 0.37. Furthermore, the fluorescence of the βAlaBpy units is quenched upon coordination to a wide range of divalent transition metal ions. We exploited this property to monitor the coordinative properties of cyclopeptides 1 and 2 in the presence of labile Cu(II) ions in aqueous media. Thus, we measured the emission spectra of 2 μM solutions of the cyclopeptides 1 and 2 in 1 mM phosphate buffer and 10 mM NaCl, pH 6.5, upon excitation at 308 nm in the presence of increasing concentrations of Cu(II) ions. […] Therefore, the affinity of the first part of the titrations cannot be determined with this experiment as it is too strong. […]
5.2. Fluorescence titration experiments
Luminescence experiments were made with a Varian Cary Eclipse Fluorescence spectrophotometer coupled to a Cary Single Cell Peltier accessory (Agilent Technologies) temperature controller. […]
emission spectrum was recorded (λex= 308 nm; λem= 410 nm) after each addition. […]

NCI/ADR-RES cells [6] = experiment: ICP-MS internalization study (intracellular Cu accumulation); format: cell-based; settings: 1 µM compound, 48 h, metallopeptides 1 eq. cyclopeptide + 1 eq. Cu(II)
Description: To evaluate the ability of the Cu(II) metallopeptide systems to internalize in cancer cells, ICP-MS studies were performed in NCI/ADR-RES cells after 48 h of incubation with cyclopeptides 1 and 2, as well as their corresponding 1/Cu(II) and 2/Cu(II) metallopeptide derivatives formed by mixing each cyclopeptide with 1 equiv Cu(II), and using CuCl2·2H2O both as a Cu(II) source and a control.
7.1. General methods and materials
ICP Measurements were conducted employing an Agilent 7900 ICP-MS system (Agilent Technologies, Tokyo, Japan). The sample introduction system was comprised of an autosampler, a double-pass spray chamber with Peltier system, a glass concentric nebulizer (MicroMist low-flow nebulizer, Glass Expansion, West Melbourne, Australia), and a quartz torch.
Quantification of copper concentrations was achieved using Agilent ICP-MS MassHunter 5.1, (Version D.01.01 Agilent Technologies, Tokyo, Japan). The parameters for the ICP-MS device were as follows: RF Power, 1550 W; Sample Depth, 8; Carrier Gas, 1.1 L/min; Nebulizer Pump […]
Roswell Park Memorial Institute 1640 medium (RPMI), fetal bovine serum (FBS), penicillin, and streptomycin were purchased from Invitrogen Thermo Fisher.
Ovarian tumour NCI/ADR-RES cells, obtained from the European Collection of Authenticated Cell Cultures (ECACC), were cultured at 37 °C in a 5% CO2 atmosphere in RPMI medium containing 10% FBS and supplemented with 50 U/mL penicillin and 50 U/mL streptomycin, in 75 cm2 cell culture flasks. All cell experiments were performed at 37 °C in a 5% CO 2 atmosphere with this modified RPMI, referred as “medium” or “culture medium”.
7.3. […]
The culture medium was then replaced with 3 mL of fresh medium containing 1 µM of the compound [Cu(II) (CuCl₂·2H₂O), cyclopeptide ( 1 or 2), or metallopeptide system [1/Cu(II) or 2/Cu(II); 1 eq. cyclopeptide + 1 eq. […] Lysates were digested at 95 °C overnight, diluted with 1% HNO₃ to a final volume of 5 mL, and analyzed by ICP-MS. The Cu(II) content in the culture medium (3 mL) was also measured using the same technique, yielding a value of 41.46 ng. […]

NCI/ADR-RES cells [7] = experiment: Intracellular ROS generation (ROS Assay Stain 1X); format: cell-based; settings: 100 μM compound with 125 μM H2O2, 1-5 h and 24 h, 1/Cu(II) equimolar
Description: Measurement of intracellular ROS levels in NCI/ADR-RES cells treated with Cu(II) ions, cyclopeptide 1, or the 1/Cu(II) metallopeptide system confirmed a time-dependent increase in the level of ROS generation. In short, after 24 h of incubation, cells were stained with ROS Assay Stain 1× and treated with 100 μM Cu(II) (CuCl2·2H2O), cyclopeptide 1, or 1/Cu(II), along with 125 μM H2O2, and fluorescence was recorded (λex = 495/λem = 520 nm) every hour for the first 5 h and again at 24 h. The experiment with the metallopeptide system was conducted by using equimolar amounts of cyclopeptide 1 and Cu(II) to prevent an excess of free copper in the medium. […] The cytotoxicity of the metallopeptide systems appears to be closely linked to their ability to enhance intracellular oxidative stress via increased ROS production, likely driven by Cu(II) accumulation within the cells.
9.2. […]
NCI/ADR-RES cells were seeded in a 96 well plate (Thermo Scientific 165305) at a density of 2,5 x 10^5 cells/ml. […] The fluorescence was measured in a microplate reader every hour for the first 5 hours, and again at 24 hours after the addition of the compounds (λex= 495 nm / λem= 520 nm). […]
Figure S15. […] Fluorescence (λex= 495 nm / λem= 520 nm) was recorded every hour for the first 5 hours, and again at 24 hours after the addition of the compounds to assess intracellular ROS generation. […]

[8] = SF-268, crystal violet, 1/Cu(II) 3 equiv Cu(II), 2/Cu(II) 5 equiv Cu(II)
[9] = SF-268, crystal violet, at maximum concentration
[10] = NCI/ADR-RES, MTT, 1/Cu(II) 3 equiv Cu(II), 2/Cu(II) 5 equiv Cu(II)
[11] = NCI/ADR-RES, MTT, at maximum concentration
[12] = NCI-H460, MTT, 1/Cu(II) 3 equiv Cu(II), 2/Cu(II) 5 equiv Cu(II)
[13] = NCI-H460, MTT, at maximum concentration
[14] = MRC-5, 48 h, 1/Cu(II) 3 equiv Cu(II), 2/Cu(II) 5 equiv Cu(II)
[15] = MRC-5, 48 h, at maximum concentration
[16] = HCT-116, MTT, 1/Cu(II) 3 equiv Cu(II), 2/Cu(II) 5 equiv Cu(II)
[17] = HCT-116, MTT, at maximum concentration

Structure (SMILES)	IC50 (SF-268 (human glioma); [8]) [µM]	E max (maximum % cell inhibition) (SF-268 (human glioma); [9]) [%]	IC50 [1, 10] [µM]	E max (maximum % cell inhibition) [1, 11] [%]	IC50 [2, 12] [µM]	E max (maximum % cell inhibition) [2, 13] [%]	IC50 [3, 14] [µM]	E max (maximum % cell inhibition) [3, 15] [%]	IC50 [4, 16] [µM]	E max (maximum % cell inhibition) [4, 17] [%]	intracellular Cu(II) accumulation (ICP-MS) (NCI/ADR-RES cells [6])	also measured
N.N.[Cl][Pt][Cl] [cisplatin, reference compound]	3.89 ± 0.08	92 ± 1	13 ± 1	86 ± 1	5.29 ± 0.46	62 ± 4	5.7 ± 0.22	92 ± 1	13 ± 1	94 ± 1		
N=C(N)NCCC[C@@H]1NC(=O)c2ccc(nc2)-c2ccc(cn2)NC(=O)CCNC(=O)[C@H](CCCNC(=N)N)NC(=O)[C@H](CCCNC(=N)N)NC(=O)[C@H](CCCNC(=N)N)NC(=O)c2ccc(nc2)-c2ccc(cn2)NC(=O)CCNC(=O)[C@H](CCCNC(=N)N)NC(=O)[C@H](CCCNC(=N)N)NC(=O)[C@H](CCCNC(=N)N)NC(=O)c2ccc(nc2)-c2ccc(cn2)NC(=O)CCNC(=O)[C@H](CCCNC(=N)N)NC(=O)[C@H](CCCNC(=N)N)NC1=O [compound 2, cyclo-(βAlaBpy-Arg3)3] (cyclo(RRR[βAla][X1]RRR[βAla][X1]RRR[βAla][X1]))											notably lower than that of the metallopeptide systems	Kd [5]: 0.24 ± 0.1 µM; E max (maximum % cell inhibition) (SF-268 (human glioma)): 92 ± 1%; IC50 (SF-268 (human glioma)): 16 ± 1 µM; E max (maximum % cell inhibition) [1]: 86 ± 1%; IC50 [1]: 28 ± 1 µM; E max (maximum % cell inhibition) [2]: 92 ± 1%; IC50 [2]: 21 ± 1 µM; E max (maximum % cell inhibition) ([3]; 48 h): 92 ± 1%; IC50 ([3]; 48 h): 18 ± 1 µM; E max (maximum % cell inhibition) [4]: 80 ± 1%; IC50 [4]: > 100 µM
O.O.[Cl][Cu][Cl] [CuCl2·2H2O, reference compound]	> 100	87 ± 1	99 ± 1	91 ± 1	> 100	97 ± 1	79 ± 3	91 ± 1	> 100	94 ± 1	modest increase in intracellular copper	intracellular ROS levels (fluorescence) (NCI/ADR-RES cells [7]): moderate effect
